Experimental data reported in patent US20250382439A1, “BLUE LIGHT BLOCKING COMPOUND, BLUE LIGHT BLOCKING COMPOSITION, USE OF BLUE LIGHT BLOCKING COMPOUND, USE OF BLUE LIGHT BLOCKING COMPOSITION AND METHOD FOR PREPARING BLUE LIGHT BLOCKING COMPOUND” (Visco Vision Inc., priority 2024, published 2025).

Key:
Format in all cases: physicochemical
[1] = Miscibility evaluation: blue light blocking compound dissolved in HEMA and in a silicone hydrogel contact lens composition; details: the higher the value, the greater the miscibility; for miscibility in silicone hydrogel contact lens composition: composition with hydrophilic monomer, first siloxane monomer and second siloxane monomer; for miscibility in HEMA: dissolved in 2-hydroxyethyl methacrylate (HEMA)
Experimental: The blue light blocking compounds of Examples 1 to 3 and Comparative Example 1 are dissolved in 2-hydroxyethyl methacrylate (represented by HEMA in the table, which is also the hydrophilic monomer used to manufacture the ophthalmic device) and a silicone hydrogel contact lens composition for observing the miscibility, and the results are shown in the following TABLE 1. The higher the value in the TABLE 1, the greater the miscibility. The silicone hydrogel contact lens composition used in the miscibility evaluation includes a polymerizable monomer, and the polymerizable monomer includes a hydrophilic monomer, a first siloxane monomer and a second siloxane monomer.

[2] = as above
[3] = Blue light absorbance evaluation of ophthalmic devices (absorption spectrum, UV-VIS spectrophotometer SHIMADZU UV-2600); details: 380 nm to 460 nm
Description: The above components can be mixed in a specific ratio to form the blue light blocking composition for manufacturing an ophthalmic device. In an embodiment, the blue light blocking composition of the present disclosure may be put into a contact lens mold, and components in the blue light blocking composition undergo a curing reaction (thermal curing reaction or photo curing reaction) through heating or irradiating light to form an ophthalmic device. The heating temperature may be between about 30° C. and about 150° C., and the heating time may be between about 1 hour and 12 hours. In an embodiment, the reaction conditions can be heating at 30-70° C. for 0-2 hours, heating at 70-100° C. for 2-4 hours, and heating at 100-150° C. for 4-12 hours. In an embodiment, a hydration process and/or a sterilization process can be performed after the curing reaction. […]
The ophthalmic devices of Examples 4 to 9 and Comparative Examples 2 and 3 are subjected to a blue light absorbance evaluation. The blue light absorbance is measured by absorption spectrum with UV-VIS spectrophotometer (SHIMADZU UV-2600). The blue light absorbance represents the amount of blue light with a wavelength between 380 nm and 460 nm that are absorbed by silicone hydrogel contact lens.

Row | Structure (SMILES) | miscibility in silicone hydrogel contact lens composition [1] [%] | miscibility in HEMA [1] [%] | miscibility with the silicone hydrogel contact lens compositions (observation) ([2]; addition amount 1.0%) | usable addition amount in silicone hydrogel contact lens composition ([2]; concluded from TABLE 2) | blue light absorbance ([3]; ophthalmic device from silicone hydrogel contact lens composition with 1.5% of the compound) [%] | blue light absorbance ([3]; ophthalmic device from silicone hydrogel contact lens composition with 2% of the compound) [%]
1 | C=CS(=O)(=O)c1cc(OC)c(/N=N/C2C(=O)N(c3ccc(S(=O)(=O)[O-])cc3)N=C2C)cc1C.[Na+] (stereo not drawn) [Comparative Example 1, reference compound] | 0.1 | 5 | precipitation occurs | less than 1.0% | – | –
2 | C=C(C)C(=O)OCCOC(=O)/C(=C/c1ccc(N(C)C)cc1)C(=O)OC [Example 1] | 4.0 | 25 | – | – | 56.1 | 65.3
3 | C=C(C)C(=O)OCCOC(=O)C(=Cc1ccc(N(C)C)cc1)C(=O)OCCOC(=O)C(=C)C [Example 2] | 4.6 | 67 | – | – | – | –
4 | C=C(C)C(=O)OCCNC(=O)/C(=C/c1ccc(N(C)C)cc1)C(=O)OC [Example 3] | 1.5 | 47 | – | – | – | –
